Results as given in patent US20260284009A1, “COMPOUNDS FOR NOS-RELATED CANCERS AND METHODS OF USE” (YISSUM RESEARCH DEVELOPMENT COMPANY OF THE HEBREW …, priority 2023, published 2026).

How the values were obtained:
SH-SY5Y cells [1] = experiment: Nitrite levels (marker of NO levels) by Griess assay in SH-SY5Y cells; type: cell-based, human; conditions: 100 μM 7-NI or 20 nM siRNA (SEQ ID NO: 4), n=3
Procedure: In FIGS. 2A-2C, for quantitative analysis absorbance at 585 nm was normalized for total protein. Data are expressed as the mean±SEM. Statistical significance was determined using a One-way ANOVA followed by Fisher's LSD multiple comparison post hoc test. *P<0.05 and **P<0.01.
FIG. 2B: Quantitative analysis of nitrite levels (a marker of NO levels) measured by Griess assay for SH-SY5Y cells following administration of the control (“SH-SY5Y”) (n=3), 0.1% DMSO (“SH-SY5Y+NC”) (n=3), 100 μM 7-NI (“SH-SY5Y+7-NI”) (n=3), 20 nM siRNA (SEQ ID NO: 4) (“SH-SY5Y+si-nNOS”) (n=3).

U87-MG-xenografted mice = experiment: Survival of U87-MG-xenografted mice; type: in vivo; conditions: 80 or 120 mg/kg 7-NI daily, vs saline vehicle
SH-SY5Y cells [2] = experiment: Nitrite (Griess) assay in SH-SY5Y cells; type: cell-based, human; conditions: 7-NI
Procedure: Human neuroblastoma (“NB”) SH-SY5Y cells were obtained from the American Type Culture Collection (ATCC) and maintained in Dulbecco's modified Eagle's medium (DMEM) and Ham's F-12 (1:1) supplemented with 10% fetal bovine serum, 2 mM L-glutamine, and 100 U/ml penicillin-G/[…] streptomycin in the humidified atmosphere (37° C., 5% CO2). Cells were plated onto 25 cm^2 and 75 cm^2 at a density of […] respectively for Western blotting (WB) and 1×10^5 for immunofluorescence. The SH-SY5Y cells were treated with 100 μM 7-nitroindazole (7-NI) for 24 hr. This concentration was confirmed in the dose-response experiment (FIG. 1) using an MTT viability assay.
Released NO was measured with Griess assay Kit (Sigma-Aldrich, Cat. No. 23479) using the manufacturer's instructions.
SH-SY5Y cells were plated in 6 well plates, as well as on 22 mm^2 coverslips at a density of 6.0×10^4 cells/cm^2 and transfected with 20 nM nNOS siRNA (SEQ ID NO: 4) for 24 h, with the use of Lipofectamine RNAi MAX (56530, Invitrogen) according to the manufacturer's protocol. Then cells were washed with phosphate-buffered saline (PBS) and harvested for WB and fixed for immunofluorescence.

SH-SY5Y cells [3] = experiment: Clonogenic survival assay in SH-SY5Y cells; type: cell-based, human; conditions: 7-NI, 14 days
Procedure: Cells were seeded into 6-well plates at concentrations of 500/well or 1000/well in triplicates. After 24 hours, 7-NI was added, or cells were transiently transfected with siRNA-nNOS, as described above (SEQ ID NO: 4), before changing to serum-containing medium. Cells were incubated for 14 days to form visible colonies. Colonies were stained with crystal violet, washed with PBS, air-dried, and imaged. The colonies were visualized using ImageJ software. Cell colonies of greater than 50 cells were identified and counted.

[4] = system: U87-MG human glioblastoma cell line; experiment: 3-Ntyr levels in U87-MG cells after treatment; type: cell-based; conditions: compared to the control, not significant (FIGS. 12C-12D)

Structure (SMILES)	nitrite levels (a marker of NO levels) (SH-SY5Y cells [1])	survival (U87-MG-xenografted mice)	nitrite content (Griess assay) (SH-SY5Y cells [2])	number of colonies (SH-SY5Y cells [3])	3-Ntyr levels ([4]; higher dose)	3-Ntyr levels ([4]; lower dose)
O=[N+]([O-])c1cccc2cn[nH]c12 [7-NI, 7-nitroindazole]	significant decrease	increased survival	dramatic reduction	decrease		
CC(=N)NCCCC[C@H](N)C(=O)O [L-NIL, N^6-(1-iminoethyl)-L-lysine]					reduced	slightly increased
